{"source": "patent US8192962B2", "about": "“Processes for detecting toxic substances” (Daikin Industries, Ltd., priority 2001, dated 2012)", "tested_on": "Transport facilitation protein genes", "test": "DNA chip mRNA expression in yeast, transport facilitation protein genes (Table 5)", "assay_type": "cell-based, Saccharomyces cerevisiae S288C", "protocol": "Yeast (Saccharomyces cerevisiae S288C (α SUC2mal mel gap2 CUP1)) were incubated at 25° C. on YPD medium (yeast extract 1%, polypepton 2%, glucose 2%). One of toxic chemical substances was added to the cells at logarithmic growth phase, and the cells were further incubated for two hours. Cells were cultured without any chemical substance in the same condition, and were used as control. Concentrations of the chemical substances were defined to inhibit the growth of the yeast but not lead to death.\nAfter completion of the incubation, the culture was centrifuged to collect the cells. To the cells, sodium acetate buffer (50 mM sodium acetate, 10 mM EDTA, 1% SDS) was added, and the mixture was shaken at 65° C. for five minutes, followed by returning to room temperature, and obtaining the supernatant, of which the procedures were repeated two times. To the supernatant, ½ amount of a solution of phenol/chloroform was added, and the mixture was centrifuged to give a supernatant, which was added with an equal amount of chloroform, and the mixture was centrifuged to give a supernatant. To the supernatant, an equal amount of isopropanol containing 0.3 M sodium acetate was added, and the mixture was allowed to stand at room temperature for 30 minutes, after which the mixture was centrifuged to give a sediment of the whole RNAs. Seventy % ethanol was added to the sediment, and the mixture was again centrifuged to give a sediment, which was then dried and dissolved in water. mRNA was isolated from the whole RNAs as followings. In view of the fact that a poly A chain is attached to the 3′ terminus of mRNA, a polynucleotide having a poly T structure which was immobilized on the surface of latex beads was used to trap the mRNA, and then the mRNA was washed and eluted with spine column (Oligotex-dT30<Super>mRNA Purification Kit, Takara). Reverse transcription of the mRNA was conducted with a reverse transcriptase (Super Script II Reverse Transcriptase; catalogue No. 18064-014, GibcoBRL) using fluorescence-labeled nucleotides to give cDNAs that were introduced with Cy3-dUTP or Cy5-dUTP during the reverse transcription.\nThe labeled cDNAs were dissolved in TE buffer (10mM Tris-HCl/1 mM EDTA, pH8.0), and the solution was dropped on the DNA chip containing the whole genes of yeast (DNA Chip Research Inc. Japan) so that the cDNAs were hybridized on the DNA chip at 65° C. for over 12 hours. The fluoresces intensity of the DNA chip was read with a scanner, and the ratio relative to the fluorescence intensity resulting from the absence of chemical substance was estimated as the following, which is shown in Tables 1 to 9: […]", "data": [{"smiles": "[Cl][Pb][Cl]", "note": "[(4), PbCl2]", "values": [{"measurement": "The level of expressed mRNA in the presence of chemical substance/The level of expressed mRNA in the absence of chemical substance", "setting": "yeast gene YBL030C", "result": 0.9}, {"measurement": "The level of expressed mRNA in the presence of chemical substance/The level of expressed mRNA in the absence of chemical substance", "setting": "yeast gene YBL099W", "result": 1.4}, {"measurement": "The level of expressed mRNA in the presence of chemical substance/The level of expressed mRNA in the absence of chemical substance", "setting": "yeast gene YBR052C", "result": 2.6}, {"measurement": "The level of expressed mRNA in the presence of chemical substance/The level of expressed mRNA in the absence of chemical substance", "setting": "yeast gene YBR068C", "result": 2.5}, {"measurement": "The level of expressed mRNA in the presence of chemical substance/The level of expressed mRNA in the absence of chemical substance", "setting": "yeast gene YBR127C", "result": 1.1}, {"measurement": "The level of expressed mRNA in the presence of chemical substance/The level of expressed mRNA in the absence of chemical substance", "setting": "yeast gene YBR132C", "result": 1.8}, {"measurement": "The level of expressed mRNA in the presence of chemical substance/The level of expressed mRNA in the absence of chemical substance", "setting": "yeast gene YBR207W", "result": 2.0}, {"measurement": "The level of expressed mRNA in the presence of chemical substance/The level of expressed mRNA in the absence of chemical substance", "setting": "yeast gene YBR293W", "result": 1.8}, {"measurement": "The level of expressed mRNA in the presence of chemical substance/The level of expressed mRNA in the absence of chemical substance", "setting": "yeast gene YBR294W", "result": 2.6}, {"measurement": "The level of expressed mRNA in the presence of chemical substance/The level of expressed mRNA in the absence of chemical substance", "setting": "yeast gene YBR295W", "result": 1.1}, {"measurement": "The level of expressed mRNA in the presence of chemical substance/The level of expressed mRNA in the absence of chemical substance", "setting": "yeast gene YBR298C", "result": 2.3}, {"measurement": "The level of expressed mRNA in the presence of chemical substance/The level of expressed mRNA in the absence of chemical substance", "setting": "yeast gene YCL025C", "result": 1.7}, {"measurement": "The level of expressed mRNA in the presence of chemical substance/The level of expressed mRNA in the absence of chemical substance", "setting": "yeast gene YCL038C", "result": 1.6}, {"measurement": "The level of expressed mRNA in the presence of chemical substance/The level of expressed mRNA in the absence of chemical substance", "setting": "yeast gene YCR037C", "result": 0.8}, {"measurement": "The level of expressed mRNA in the presence of chemical substance/The level of expressed mRNA in the absence of chemical substance", "setting": "yeast gene YCR098C", "result": 2.0}, {"measurement": "The level of expressed mRNA in the presence of chemical substance/The level of expressed mRNA in the absence of chemical substance", "setting": "yeast gene YDL128W", "result": 1.0}, {"measurement": "The level of expressed mRNA in the presence of chemical substance/The level of expressed mRNA in the absence of chemical substance", "setting": "yeast gene YDL198C", "result": 1.4}, {"measurement": "The level of expressed mRNA in the presence of chemical substance/The level of expressed mRNA in the absence of chemical substance", "setting": "yeast gene YDL210W", "result": 1.1}, {"measurement": "The level of expressed mRNA in the presence of chemical substance/The level of expressed mRNA in the absence of chemical substance", "setting": "yeast gene YDL245C", "result": 2.2}, {"measurement": "The level of expressed mRNA in the presence of chemical substance/The level of expressed mRNA in the absence of chemical substance", "setting": "yeast gene YDR038C", "result": 0.9}, {"measurement": "The level of expressed mRNA in the presence of chemical substance/The level of expressed mRNA in the absence of chemical substance", "setting": "yeast gene YDR039C", "result": 0.9}, {"measurement": "The level of expressed mRNA in the presence of chemical substance/The level of expressed mRNA in the absence of chemical substance", "setting": "yeast gene YDR086C", "result": 1.4}, {"measurement": "The level of expressed mRNA in the presence of chemical substance/The level of expressed mRNA in the absence of chemical substance", "setting": "yeast gene YDR270W", "result": 1.3}, {"measurement": "The level of expressed mRNA in the presence of chemical substance/The level of expressed mRNA in the absence of chemical substance", "setting": "yeast gene YDR298C", "result": 1.3}, {"measurement": "The level of expressed mRNA in the presence of chemical substance/The level of expressed mRNA in the absence of chemical substance", "setting": "yeast gene YDR342C", "result": 5.7}, {"measurement": "The level of expressed mRNA in the presence of chemical substance/The level of expressed mRNA in the absence of chemical substance", "setting": "yeast gene YDR343C", "result": 4.6}, {"measurement": "The level of expressed mRNA in the presence of chemical substance/The level of expressed mRNA in the absence of chemical substance", "setting": "yeast gene YDR345C", "result": 2.6}, {"measurement": "The level of expressed mRNA in the presence of chemical substance/The level of expressed mRNA in the absence of chemical substance", "setting": "yeast gene YDR387C", "result": 2.2}, {"measurement": "The level of expressed mRNA in the presence of chemical substance/The level of expressed mRNA in the absence of chemical substance", "setting": "yeast gene YDR497C", "result": 1.3}, {"measurement": "The level of expressed mRNA in the presence of chemical substance/The level of expressed mRNA in the absence of chemical substance", "setting": "yeast gene YEL027W", "result": 1.1}, {"measurement": "The level of expressed mRNA in the presence of chemical substance/The level of expressed mRNA in the absence of chemical substance", "setting": "yeast gene YEL063C", "result": 1.3}, {"measurement": "The level of expressed mRNA in the presence of chemical substance/The level of expressed mRNA in the absence of chemical substance", "setting": "yeast gene YEL065W", "result": 0.4}, {"measurement": "The level of expressed mRNA in the presence of chemical substance/The level of expressed mRNA in the absence of chemical substance", "setting": "yeast gene YER053C", "result": 1.7}, {"measurement": "The level of expressed mRNA in the presence of chemical substance/The level of expressed mRNA in the absence of chemical substance", "setting": "yeast gene YFL011W", "result": 3.3}, {"measurement": "The level of expressed mRNA in the presence of chemical substance/The level of expressed mRNA in the absence of chemical substance", "setting": "yeast gene YFL041W", "result": 1.2}, {"measurement": "The level of expressed mRNA in the presence of chemical substance/The level of expressed mRNA in the absence of chemical substance", "setting": "yeast gene YFL050C", "result": 2.2}, {"measurement": "The level of expressed mRNA in the presence of chemical substance/The level of expressed mRNA in the absence of chemical substance", "setting": "yeast gene YFL054C", "result": 2.2}, {"measurement": "The level of expressed mRNA in the presence of chemical substance/The level of expressed mRNA in the absence of chemical substance", "setting": "yeast gene YGL006W", "result": 2.6}, {"measurement": "The level of expressed mRNA in the presence of chemical substance/The level of expressed mRNA in the absence of chemical substance", "setting": "yeast gene YGL008C", "result": 0.9}, {"measurement": "The level of expressed mRNA in the presence of chemical substance/The level of expressed mRNA in the absence of chemical substance", "setting": "yeast gene YGL104C", "result": 1.8}, {"measurement": "The level of expressed mRNA in the presence of chemical substance/The level of expressed mRNA in the absence of chemical substance", "setting": "yeast gene YGL167C", "result": 1.3}, {"measurement": "The level of expressed mRNA in the presence of chemical substance/The level of expressed mRNA in the absence of chemical substance", "setting": "yeast gene YGL255W", "result": 0.8}, {"measurement": "The level of expressed mRNA in the presence of chemical substance/The level of expressed mRNA in the absence of chemical substance", "setting": "yeast gene YGR055W", "result": 0.7}, {"measurement": "The level of expressed mRNA in the presence of chemical substance/The level of expressed mRNA in the absence of chemical substance", "setting": "yeast gene YGR065C", "result": 1.1}, {"measurement": "The level of expressed mRNA in the presence of chemical substance/The level of expressed mRNA in the absence of chemical substance", "setting": "yeast gene YGR082W", "result": 1.0}, {"measurement": "The level of expressed mRNA in the presence of chemical substance/The level of expressed mRNA in the absence of chemical substance", "setting": "yeast gene YGR096W", "result": 4.6}, {"measurement": "The level of expressed mRNA in the presence of chemical substance/The level of expressed mRNA in the absence of chemical substance", "setting": "yeast gene YGR138C", "result": 1.2}, {"measurement": "The level of expressed mRNA in the presence of chemical substance/The level of expressed mRNA in the absence of chemical substance", "setting": "yeast gene YGR191W", "result": 1.5}, {"measurement": "The level of expressed mRNA in the presence of chemical substance/The level of expressed mRNA in the absence of chemical substance", "setting": "yeast gene YGR197C", "result": 1.0}, {"measurement": "The level of expressed mRNA in the presence of chemical substance/The level of expressed mRNA in the absence of chemical substance", "setting": "yeast gene YGR224W", "result": 1.2}]}]}
